Test results reported in patent US10246442B2, “4-Aminoquinazolin compounds as prolyl hydroxylase inhibitors” (JANSSEN PHARMACEUTICA NV, priority 2011, dated 2019).

Assays:
[1] = biological target: PHD2181-417 (Homo sapiens (Human), UniProt Q9GZT9); experiment: PHD enzymatic assay ([14C]-succinic acid production); assay type: biochemical; settings: purified PHD2181-417, HIF-1α peptide substrate, 30 min pre-incubation; average of results
Protocol: Expression and Purification of PHD2181-417
The human PHD2 expression construct containing amino acids 181-417 of GenBank Accession ID NM_022051 was cloned into a pBAD vector (Invitrogen), incorporating both an N-terminal histidine tag and a Smt3-tag, both of which are cleaved by Ulp1. Protein production was achieved by expression in BL21 cells grown in Terrific Broth containing 100 μg/ml ampicillin. Cell cultures were inoculated at 37° C. and grown to an OD600 of 0.8. Cultures were induced with 0.1% arabinose and grown overnight at 20° C. with continuous shaking at 225 rpm. Cells were then harvested by centrifugation and stored at −80° C. Cell pellets were suspended in Buffer A (50 mM Tris-HCl pH 7.2, 100 mM NaCl, 100 mM L-arginine, 1 mM TCEP, 0.05% (w/v) NP-40, 50 mM imidazole) followed by the addition of lysozyme and benzonase. Cells were lysed by sonication and the lysate was cleared by centrifugation (15,000 rpm, 90 min, 4° C.). The protein was purified by nickel affinity chromatography using a HisTrap Crude FF column (GE Healthcare). Samples were eluted in Buffer A with a 50-200 mM imidazole gradient. Cleavage of the Smt tag with Ulp1 protease was achieved via overnight incubation with dialyzing against Buffer A. The PHD2181-417 sample was then passed over a second HisTrap Crude FF column (GE Healthcare) to remove uncleaved protein. The flow-through was then dialyzed into 50 mM MES pH 6.0, 1 mM TCEP, 5 mM NaCl for ion exchange chromatography on a HiTrap SP Cation Exchange column (GE Healthcare). The PHD2181-417 protein was eluted with a 0-0.2 M NaCl gradient. Fractions were pooled for further purification by size exclusion chromatography over a Superdex 75 Size Exclusion Column (GE Healthcare). Final protein was concentrated to 4 mg/ml and dialyzed in 10 mM PIPES pH 7.0, 100 mM NaCl, 0.5 mM TCEP.
(10 μM, California Peptide Research Inc., Napa, Calif.), and [5-^14C]-2-oxoglutaric acid (50 mCi/mmol, Moravek Chemicals, Brea, Calif.) in reaction buffer (40 mM Tris-HCl, pH 7.5, 0.4 mg/ml catalase, 0.5 mM DTT, 1 mM ascorbate) for 10 minutes. Compounds were pre-incubated for 30 min before starting the reaction (all test compounds were dissolved at 10 mM in 100% DMSO (w/v) and were tested with final compound concentrations at 100 μM in 1% DMSO (w/v)). The reaction was stopped by addition of 50 μl of 70 mM H3PO4 and 50 μl of 500 mM NaH2PO4, pH 3.2. Detection of [^14C]-succinic acid was achieved by separating from [5-^14C]-2-oxoglutaric acid by incubating the reaction mixture with 100 μl of 0.16 M DNP prepared in 30% perchloric acid. Next, 50 μl of unlabeled 20 mM 2-oxoglutaric acid/20 mM succinic acid, serving as carrier for the radioactivity, was added to the mixture, and was allowed to proceed for 30 minutes at room temperature. The reaction was then incubated with 50 μl of 1 M 2-oxoglutaric acid for 30 additional minutes at room temperature to precipitate the excess DNP. The reaction was then centrifuged at 2800×g for 10 minutes at room temperature to separate [^14C]-succinic acid in the supernatant from the precipitated [^14C]-dinitrophenylhydrazone. Fractions of the supernatant (400 μI) were counted using a beta counter (Beckman Coulter, Fullerton, Calif.). Inhibition of PHD2181-417 activity was measured as a decrease in succinic acid production. The IC50 values were estimated by fitting the data to a three-parameter logistic function using GraphPad Prism, version 4.02 (Graph Pad Software, San Diego, Calif.).

[2] = test system: Erythropoietin secretion, Hep-3B cells; experiment: Cellular assay: EPO secretion in Hep-3B cells; assay type: cell-based; settings: Homo sapiens, Hep3B, 100 μM compound, 24 hours, percent of EPO secretion relative to assay control compound 7-[(4-Chloro-phenyl)-(5-methyl-isoxazol-3-ylamino)-methyl]-quinolin-8-ol, read-out: Cellular % EPO Stimulation
Protocol: Hep-3B cells (ATCC, Manassas, Va.) were plated in 96-well plates at 20,000 cells per well in 100 μl of DMEM containing 10% fetal bovine serum, 1% non-essential amino acids, 50 IU/mL of penicillin and 50 μg/mL of streptomycin (all cell culture reagents from Invitrogen, Carlsbad, Calif.). Twenty-four hours after plating, compounds were added and incubated for an additional 24 hours. All compounds were tested with final compound concentrations at 100 μM. Fifty microliters of the supernatant was then transferred to a human Hypoxia assay kit (Meso-Scale Discovery, Gaithersburg, Md.). Erythropoietin in the supernatant was detected according to the manufacturer's instructions as follows. EPO detection plates were blocked with 3% BSA in PBS overnight and 50 μl of the supernatant was incubated at room temperature in an orbital shaker for 2 h. Twenty-five microliters of 0.5 μg/ml anti-EPO detection antibody was added for 2 hours at room temperature in an orbital shaker. After 3 washes in PBS, 150 μl of 1× read buffer is added and the plate is then read on the MSD SECTOR instrument. Data was analyzed by determining the percent of EPO secretion in the presence of 100 μM compound relative to an assay control compound, 7-[(4-Chloro-phenyl)-(5-methyl-isoxazol-3-ylamino)-methyl]-quinolin-8-ol.

Chain of PHD2181-417 (Q9GZT9 181-417): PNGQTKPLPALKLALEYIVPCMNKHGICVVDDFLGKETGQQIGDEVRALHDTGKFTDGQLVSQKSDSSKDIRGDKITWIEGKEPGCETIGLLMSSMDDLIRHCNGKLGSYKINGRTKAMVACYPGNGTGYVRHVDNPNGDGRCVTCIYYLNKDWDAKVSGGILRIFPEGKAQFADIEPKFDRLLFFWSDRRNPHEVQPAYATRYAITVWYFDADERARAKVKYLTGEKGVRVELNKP

CC(C)c1ccc2nc(-n3cc(C(=O)O)cn3)nc(NC3CC3)c2c1 [Example 188, 1-(4-(cyclopropylamino)-6-isopropylquinazolin-2-yl)-1H-pyrazole-4-carboxylic acid] was tested. Which “Enzyme pIC50” value [1] did it give?
The value was 6.0.

What about the activation at 100 µM [2] of the same compound?
Its activation at 100 µM is 35%.

Which results are given for CN(C)c1nc(-n2cc(C(=O)O)cn2)nc2ccc(C3CCCCC3)cc12 [Example 38, 1-(6-Cyclohexyl-4-(dimethylamino)quinazolin-2-yl)-1H-pyrazole-4-carboxylic acid]?
Enzyme pIC50 [1]: 7.2; activation at 100 µM [2]: 61%

What does the source list for CC(C)c1cc2c(NC3CC3)nc(-n3cc(C(=O)O)cn3)nc2cc1Cl [Example 165, 1-(7-chloro-4-(cyclopropylamino)-6-isopropylquinazolin-2-yl)-1H-pyrazole-4-carboxylic acid]?
Enzyme pIC50 [1]: 7.0; activation at 100 µM [2]: 24%

Which results are given for Cc1cccc(C)c1Oc1cc2c(Nc3ccccc3)nc(-n3cc(C(=O)O)cn3)nc2cc1F [Example 6, 1-[6-(2,6-Dimethyl-phenoxy)-7-fluoro-4-phenylamino-quinazolin-2-yl]-1H-pyrazole-4-carboxylic acid]?
Enzyme pIC50 [1]: 7.4; activation at 100 µM [2]: 22%

What does the source list for O=C(O)c1cnn(-c2nc(N3CCCCC3)c3cc(C4CCCCC4)ccc3n2)c1 [Example 26, 1-(6-Cyclohexyl-4-(piperidin-1-yl)quinazolin-2-yl)-1H-pyrazole-4-carboxylic acid]?
Enzyme pIC50 [1]: 7.1; activation at 100 µM [2]: 20%

Which “Enzyme pIC50” value [1] does the source give for O=C(O)c1cnn(-c2nc(N3CCOCC3)c3cc(OC4CCCCC4)c(Cl)cc3n2)c1 [Example 136, 1-(7-chloro-6-(cyclohexyloxy)-4-morpholinoquinazolin-2-yl)-1H-pyrazole-4-carboxylic acid] here?
The value was 6.7.

And the activation at 100 µM [2]?
Its activation at 100 µM is 33%.

What does the source list for CCN(CC)c1nc(-n2cc(C(=O)O)cn2)nc2cc(Cl)c(C(C)C)cc12 [Example 162, 1-(7-chloro-4-diethylamino-6-isopropylquinazolin-2-yl)-1H-pyrazole-4-carboxylic acid]?
Enzyme pIC50 [1]: 7.2; activation at 100 µM [2]: 40%

Which results are given for O=C(O)c1cnn(-c2nc(N3CCOCC3)c3cc(OC4CCCCC4)ccc3n2)c1 [Example 172, 1-(6-(cyclohexyloxy)-4-morpholinoquinazolin-2-yl)-1H-pyrazole-4-carboxylic acid]?
Enzyme pIC50 [1]: 6.4; activation at 100 µM [2]: 18%

For CCN(CC)c1nc(-n2cc(C(=O)O)cn2)nc2ccc(C3CCCCC3)cc12 [Example 27, 1-(6-Cyclohexyl-4-(diethylamino)quinazolin-2-yl)-1H-pyrazole-4-carboxylic acid], which “Enzyme pIC50” value [1] is on record?
Its value is 7.3.

What about the activation at 100 µM [2] of the same compound?
Its activation at 100 µM is 45%.

CC(C)c1ccc2nc(-n3cc(C(=O)O)cn3)nc(N3CCOCC3)c2c1 [Example 184, 1-(4-(morpholino)-6-isopropylquinazolin-2-yl)-1H-pyrazole-4-carboxylic acid] was tested. Which “Enzyme pIC50” value [1] did it give?
Its value is 5.7.

And the activation at 100 µM [2]?
The activation at 100 µM was 24%.

How did the “Enzyme pIC50” value [1] turn out when O=C(O)c1cnn(-c2nc(N3CCOCC3)c3cc(OC4CCCCC4)c(F)cc3n2)c1 [Example 100, 1-(7-Fluoro-6-(cyclohexyloxy)-4-morpholinoquinazolin-2-yl)-1H-pyrazole-4-carboxylic acid] was run?
The value was 6.6.

What about the activation at 100 µM [2] of the same compound?
The activation at 100 µM was 18%.

Which results are given for O=C(O)c1cnn(-c2nc(N3CCOCC3)c3cc(C4CCCCC4)ccc3n2)c1 [Example 33, 1-(6-Cyclohexyl-4-morpholinoquinazolin-2-yl)-1H-pyrazole-4-carboxylic acid]?
Enzyme pIC50 [1]: 6.8; activation at 100 µM [2]: 36%

Which “Enzyme pIC50” value [1] does the source give for O=C(O)c1cnn(-c2nc(NC3CC3)c3cc(Oc4ccccc4)ccc3n2)c1 [Example 75, 1-(4-(Cyclopropylamino)-6-phenoxyquinazolin-2-yl)-1H-pyrazole-4-carboxylic acid] here?
The value was 6.8.

And the activation at 100 µM [2]?
Its activation at 100 µM is 20%.

How did the “Enzyme pIC50” value [1] turn out when O=C(O)c1cnn(-c2nc(N3CCSCC3)c3cc(-c4ccccc4)ccc3n2)c1 [Example 54, 1-(6-Phenyl-4-thiomorpholinoquinazolin-2-yl)-1H-pyrazole-4-carboxylic acid] was run?
Its value is 6.8.

What about the activation at 100 µM [2] of the same compound?
The activation at 100 µM was 25%.

With Cc1cccc(C)c1Oc1cc2c(NC3CCOCC3)nc(-n3cc(C(=O)O)cn3)nc2cc1F [Example 16, 1-(6-(2,6-Dimethylphenoxy)-7-fluoro-4-((tetrahydro-2H-pyran-4-yl)amino)quinazolin-2-yl)-1H-pyrazole-4-carboxylic acid] as the compound, how does the “Enzyme pIC50” value [1] read?
Its value is 7.1.

And the activation at 100 µM [2]?
The activation at 100 µM was 71%.

Which “Enzyme pIC50” value [1] does the source give for O=C(O)c1cnn(-c2nc(N3CCCC3)c3cc(Oc4ccccc4)ccc3n2)c1 [Example 73, 1-(6-Phenoxy-4-(pyrrolidin-1-yl)quinazolin-2-yl)-1H-pyrazole-4-carboxylic acid] here?
The value was 7.2.

What about the activation at 100 µM [2] of the same compound?
The activation at 100 µM was 36%.

How did the “Enzyme pIC50” value [1] turn out when Cc1cccc(C)c1Oc1cc2c(N3CCCC3)nc(-n3cc(C(=O)O)cn3)nc2cc1F [Example 5, 1-[6-(2,6-Dimethyl-phenoxy)-7-fluoro-4-pyrrolidin-1-yl-quinazolin-2-yl]-1H-pyrazole-4-carboxylic acid] was run?
The value was 7.4.

What about the activation at 100 µM [2] of the same compound?
The activation at 100 µM was 25%.

What does the source list for O=C(O)c1cnn(-c2nc(N3CCCCC3)c3cc(-c4ccccc4)ccc3n2)c1 [Example 45, 1-(6-Phenyl-4-(piperidin-1-yl)quinazolin-2-yl)-1H-pyrazole-4-carboxylic acid]?
Enzyme pIC50 [1]: 7.2; activation at 100 µM [2]: 8%

What does the source list for CN(C)c1nc(-n2cc(C(=O)O)cn2)nc2ccc(-c3ccccc3)cc12 [Example 41, 1-(4-(Dimethylamino)-6-phenylquinazolin-2-yl)-1H-pyrazole-4-carboxylic acid]?
Enzyme pIC50 [1]: 7.2; activation at 100 µM [2]: 43%

What does the source list for O=C(O)c1cnn(-c2nc(NC3CCOCC3)c3cc(Oc4ccc(Cl)cc4)ccc3n2)c1 [Example 68, 1-(6-(4-Chlorophenoxy)-4-((tetrahydro-2H-pyran-4-yl)amino)quinazolin-2-yl)-1H-pyrazole-4-carboxylic acid]?
Enzyme pIC50 [1]: 6.9; activation at 100 µM [2]: 40%

With CC(C)c1cc2c(N(C)C)nc(-n3cc(C(=O)O)cn3)nc2cc1Cl [Example 161, 1-(7-chloro-4-(dimethylamino)-6-isopropylquinazolin-2-yl)-1H-pyrazole-4-carboxylic acid] as the compound, how does the “Enzyme pIC50” value [1] read?
Its value is 7.4.

And the activation at 100 µM [2]?
The activation at 100 µM was 32%.

Which results are given for O=C(O)c1cnn(-c2nc(NC3CC3)c3cc(Oc4ccc(Cl)cc4)ccc3n2)c1 [Example 62, 1-(6-(4-Chlorophenoxy)-4-(cyclopropylamino)quinazolin-2-yl)-1H-pyrazole-4-carboxylic acid]?
Enzyme pIC50 [1]: 7.0; activation at 100 µM [2]: 32%
